Assay results reported in patent US20100120763A1, “IMIDAZO[5,1-C][1,2,4]BENZOTRIAZINE DERIVATIVES AS INHIBITORS OF PHOSPHODIESTERASES” (priority 2008, published 2010).

Legend:
PDE10A = molecular target: T1, PDE10A (Homo sapiens, UniProt Q9Y233); experiment: Inhibition of recombinant PDE10A (baculovirus/SF21 system), [3H]-cAMP SPA; type: biochemical; details: recombinant PDE10A1, cytosolic; 0.1 μM [3H]-cAMP, 37° C., 30 minutes; read-out: PDE10A IC50
T1 construct: made in house; host or cells: SF21 insect cells (baculovirus)
T1 sequence (Q9Y233 1-779 isoform Q9Y233-1): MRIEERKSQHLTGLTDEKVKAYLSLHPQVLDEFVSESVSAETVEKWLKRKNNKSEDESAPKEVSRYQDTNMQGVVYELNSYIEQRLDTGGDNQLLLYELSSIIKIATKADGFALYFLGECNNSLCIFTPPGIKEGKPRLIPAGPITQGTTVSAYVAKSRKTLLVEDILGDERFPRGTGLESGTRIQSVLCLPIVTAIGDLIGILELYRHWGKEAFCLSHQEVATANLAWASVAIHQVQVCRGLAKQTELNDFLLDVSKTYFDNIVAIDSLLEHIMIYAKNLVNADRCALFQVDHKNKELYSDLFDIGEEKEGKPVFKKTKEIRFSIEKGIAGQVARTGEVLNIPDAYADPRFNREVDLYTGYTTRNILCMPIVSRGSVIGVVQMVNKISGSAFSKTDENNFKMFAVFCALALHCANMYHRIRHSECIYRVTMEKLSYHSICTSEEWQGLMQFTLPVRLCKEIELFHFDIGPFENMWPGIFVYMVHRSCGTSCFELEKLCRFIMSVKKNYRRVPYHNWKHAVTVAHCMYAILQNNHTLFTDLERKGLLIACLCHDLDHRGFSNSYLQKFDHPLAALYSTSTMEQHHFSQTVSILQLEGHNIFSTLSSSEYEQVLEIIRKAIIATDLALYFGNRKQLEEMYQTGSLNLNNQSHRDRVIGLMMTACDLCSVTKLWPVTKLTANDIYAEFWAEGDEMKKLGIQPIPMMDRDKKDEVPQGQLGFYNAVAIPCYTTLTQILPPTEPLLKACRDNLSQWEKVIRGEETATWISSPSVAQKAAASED

PDE2A = molecular target: T2, PDE2A (Homo sapiens, UniProt O00408); experiment: Inhibition of recombinant PDE2A (expressed in baculovirus/SF21-cells), [3H]-cAMP SPA; type: biochemical
T2 construct: made in house; host or cells: SF21 insect cells (baculovirus)
T2 sequence (O00408 whole entry): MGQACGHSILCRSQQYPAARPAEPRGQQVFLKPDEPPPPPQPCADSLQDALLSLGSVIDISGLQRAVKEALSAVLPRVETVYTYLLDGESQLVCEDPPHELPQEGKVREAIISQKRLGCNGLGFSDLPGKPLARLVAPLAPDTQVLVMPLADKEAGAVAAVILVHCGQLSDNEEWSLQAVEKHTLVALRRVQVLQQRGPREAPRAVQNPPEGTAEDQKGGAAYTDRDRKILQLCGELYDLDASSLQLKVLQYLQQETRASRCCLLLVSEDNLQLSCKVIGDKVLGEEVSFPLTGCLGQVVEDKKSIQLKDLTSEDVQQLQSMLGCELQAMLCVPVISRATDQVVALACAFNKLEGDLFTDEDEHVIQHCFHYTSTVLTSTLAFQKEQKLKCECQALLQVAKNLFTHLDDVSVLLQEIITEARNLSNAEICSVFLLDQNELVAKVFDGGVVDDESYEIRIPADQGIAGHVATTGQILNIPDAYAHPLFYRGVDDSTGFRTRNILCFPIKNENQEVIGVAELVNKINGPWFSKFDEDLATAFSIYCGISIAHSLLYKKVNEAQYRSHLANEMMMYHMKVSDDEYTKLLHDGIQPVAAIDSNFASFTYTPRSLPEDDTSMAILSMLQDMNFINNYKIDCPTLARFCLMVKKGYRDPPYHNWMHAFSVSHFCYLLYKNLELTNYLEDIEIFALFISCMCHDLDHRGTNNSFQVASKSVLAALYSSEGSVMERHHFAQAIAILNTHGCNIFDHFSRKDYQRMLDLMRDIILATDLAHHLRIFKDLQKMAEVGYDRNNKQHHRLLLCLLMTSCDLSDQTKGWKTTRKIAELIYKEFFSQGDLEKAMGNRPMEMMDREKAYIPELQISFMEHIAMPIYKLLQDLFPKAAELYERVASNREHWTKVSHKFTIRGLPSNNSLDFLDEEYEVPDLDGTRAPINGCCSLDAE
Method in brief: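 Membrane fraction of baculovirus/SF21-expressed PDE2A was incubated 30 min at 37° C in Tris-HCl/MgCl2 pH 7.4 with 0.5 μM [3H]-cAMP and 1000 nM cGMP as activator. Product was detected by SPA scintillation. IC50 used a Hill-plot 2-parameter model.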

Compound | melting point [°C] | IC50 (PDE10A) [nM] | IC50 (PDE2A) [nM]
COc1cc2nnc3c(C)nc(-c4cc(C)ccc4Cl)n3c2cc1OC [Example 56, 1-(2-chloro-5-methylphenyl)-7,8-dimethoxy-3-methylbenzo[e]imidazo[5,1-c][1,2,4]triazine] | 247 to 249 | – | –
Cc1nc(CC(C)C)n2c1nnc1cc(F)c(F)cc12 [Example 59, 7,8-difluoro-1-isobutyl-3-methylbenzo[e]imidazo[5,1-c][1,2,4]triazine] | 123 to 125.5 | – | –
Cc1nc(-c2ccccc2Cl)n2c1nnc1cc(F)c(F)cc12 [Example 58, 1-(2-chlorophenyl)-7,8-difluoro-3-methylbenzo[e]imidazo[5,1-c][1,2,4]triazine] | 157 to 159 | – | –
Cc1nc(-c2cc(Cl)ccc2Cl)n2c1nnc1ccc(-c3cc(Cl)ccc3Cl)cc12 | 190 to 193 | – | –
COc1cc2nnc3c(C)nc(-c4cc(Cl)ccc4Cl)n3c2cc1OC [Example 55, 1-(2,5-dichlorophenyl)-7,8-dimethoxy-3-methylbenzo[e]imidazo[5,1-c][1,2,4]triazine] | 175 | – | –
COc1cc2nnc3c(C)nc(-c4ccccc4Cl)n3c2cc1OC [Example 46, 1-(2-chlorophenyl)-7,8-dimethoxy-3-methylbenzo[e]imidazo[5,1-c][1,2,4]triazine] | 269 to 272 | – | –
COc1cc2nnc3c(C)nc(-c4ccccc4C)n3c2cc1OC [Example 49, 7,8-dimethoxy-3-methyl-1-o-tolylbenzo[e]imidazo[5,1-c][1,2,4]triazine] | 219 to 221 | – | –
COc1cc2nnc3c(C)nc(Br)n3c2cc1OC [Example 54, 1-bromo-7,8-dimethoxy-3-methylbenzo[e]imidazo[5,1-c][1,2,4]triazine] | 200 | – | –
COc1cc(F)c2nnc3c(C)nc(-c4ccncc4)n3c2c1 [Example 87, 6-fluoro-8-methoxy-3-methyl-1-pyridin-4-ylimidazo[5,1-c][1,2,4]benzotriazine] | – | 246 | 1250
COc1cc(F)cc2c1nnc1c(C)nc(-c3cc(F)ccc3C)n12 [Example 103, 8-fluoro-1-(5-fluoro-2-methylphenyl)-6-methoxy-3-methylimidazo[5,1-c][1,2,4]benzotriazine] | – | 4.72 | 435
COc1cc(F)cc2c1nnc1c(C)nc(-c3ccc(F)nc3C)n12 [Example 120, 8-fluoro-1-(6-fluoro-2-methylpyridin-3-yl)-6-methoxy-3-methylimidazo[5,1-c][1,2,4]benzotriazine] | – | 53.6 | > 10000
COc1ccccc1-c1nc(C)c2nnc3c(OC)cc(F)cc3n12 [Example 100, 8-fluoro-6-methoxy-1-(2-methoxyphenyl)-3-methylimidazo[5,1-c][1,2,4]benzotriazine] | – | 6.53 | 894
COc1cc(F)c2nnc3c(C)nc(-c4cc(Cl)ccc4C)n3c2c1 [Example 79, 1-(5-chloro-2-methylphenyl)-6-fluoro-8-methoxy-3-methylimidazo[5,1-c][1,2,4]benzotriazine] | – | 15.2 | 8.39
COc1cc(F)c2nnc3c(C)nc(-c4cc(Cl)ccc4F)n3c2c1 [Example 88, 1-(5-chloro-2-fluorophenyl)-6-fluoro-8-methoxy-3-methylimidazo[5,1-c][1,2,4]benzotriazine] | – | 7.99 | 14.2
COc1cc(N2CCOCC2)cc2c1nnc1c(C)nc(-c3ccccc3Cl)n12 [Example 65, 1-(2-chlorophenyl)-6-methoxy-3-methyl-8-morpholin-4-ylimidazo[5,1-c][1,2,4]benzotriazine] | – | 0.85 | 50.4
COc1cc(F)cc2c1nnc1c(C)nc(-c3sc(C)nc3C)n12 [Example 127, 1-(2,4-dimethyl-1,3-thiazol-5-yl)-8-fluoro-6-methoxy-3-methylimidazo[5,1-c][1,2,4]benzotriazine] | – | 11.7 | 3420
COc1cc(F)cc2c1nnc1c(C)nc(-c3cc(Cl)ccc3F)n12 [Example 106, 1-(5-chloro-2-fluorophenyl)-8-fluoro-6-methoxy-3-methylimidazo[5,1-c][1,2,4]benzotriazine] | – | 7.91 | 336
COc1cc(F)c2nnc3c(C)nc(-c4ccccc4OC)n3c2c1 [Example 86, 6-fluoro-8-methoxy-1-(2-methoxyphenyl)-3-methylimidazo[5,1-c][1,2,4]benzotriazine] | – | 8.33 | 3390
COc1cc(OC(F)F)cc2c1nnc1c(C)nc(-c3cnccc3C)n12 [Example 150, 8-(difluoromethoxy)-6-methoxy-3-methyl-1-(4-methylpyridin-3-yl)benzo[e]imidazo[5,1-c][1,2,4]triazine] | – | 7 | 944
COc1cc(F)c2nnc3c(C)nc(-c4c(C)n[nH]c4C)n3c2c1 [Example 96, 1-(3,5-dimethyl-1H-pyrazol-4-yl)-6-fluoro-8-methoxy-3-methylimidazo[5,1-c][1,2,4]benzotriazine] | – | 53.1 | 40.3
COc1cccc2c1nnc1c(C)nc(-c3ccccc3Cl)n12 [Example 61, 1-(2-chlorophenyl)-6-methoxy-3-methylbenzo[e]imidazo[5,1-c][1,2,4]triazine] | – | 2.41 | 103
COc1cc(O)cc2c1nnc1c(C)nc(-c3ccncc3C)n12 [Example 152, 6-methoxy-3-methyl-1-(3-methylpyridin-4-yl)benzo[e]imidazo[5,1-c][1,2,4]triazin-8-ol] | – | 3.05 | 105
COc1cccc(-c2nc(C)c3nnc4c(F)cc(OC)cc4n23)c1 [Example 67, 6-fluoro-8-methoxy-1-(3-methoxyphenyl)-3-methylimidazo[5,1-c][1,2,4]benzotriazine] | – | 16.8 | 64.8
COc1cncc(-c2nc(C)c3nnc4c(OC)cc(F)cc4n23)c1 [Example 122, 8-fluoro-6-methoxy-1-(5-methoxypyridin-3-yl)-3-methylimidazo[5,1-c][1,2,4]benzotriazine] | – | 39.3 | 1620
COc1cc(O)cc2c1nnc1c(C)nc(-c3cnccc3C)n12 [Example 149, 6-methoxy-3-methyl-1-(4-methylpyridin-3-yl)benzo[e]imidazo[5,1-c][1,2,4]triazin-8-ol] | – | 22 | 451
COc1cc(F)c2nnc3c(C)nc(-c4cc(C(N)=O)ccc4F)n3c2c1 [Example 98, 4-fluoro-3-(6-fluoro-8-methoxy-3-methylimidazo[5,1-c][1,2,4]benzotriazin-1-yl)benzamide] | – | 15.4 | 45
COc1cc(OCc2ccccc2)cc2c1nnc1c(C)nc(-c3cnccc3C)n12 [Example 157, 8-(benzyloxy)-6-methoxy-3-methyl-1-(4-methylpyridin-3-yl)imidazo[5,1-c][1,2,4]benzotriazine] | – | 5.32 | 277
COc1cc(F)c2nnc3c(C)nc(-c4cnccc4C)n3c2c1 [Example 97, 6-fluoro-8-methoxy-3-methyl-1-(4-methylpyridin-3-yl)imidazo[5,1-c][1,2,4]benzotriazine] | – | 146 | 146
Cc1nc(-c2cc(Cl)ccc2Cl)n2c1nnc1c(Cl)cc(C(F)(F)F)cc12 [Example 133, 6-chloro-1-(2,5-dichlorophenyl)-3-methyl-8-(trifluoromethyl)imidazo[5,1-c][1,2,4]benzotriazine] | – | 9.69 | 403
